Source: patent US20140243197A1, “CARBAMOYLMETHOXY- AND CARBAMOYLMETHYLTHIO- AND CARBAMOYLMETHYLAMINO BENZAMIDES FOR COMBATING INVERTEBRATE PESTS” (BASF SE, priority 2011, published 2014)

What was measured:
[1] = test system: Plutella xylostella; assay: Diamond backmoth leaf-dip test on cabbage leaves, mortality; assay type: in vivo; conditions: 3rd instar larvae, cabbage leaves dipped, recorded 72 hours after treatment, read-out: mortality in comparison with untreated controls
Method: The active compound was dissolved at the desired concentration in a mixture of 1:1 (vol:vol) distilled water: aceteone. Surfactant (Alkamuls® EL 620) was added at a rate of 0.1% (vol/vol). The test solution was prepared at the day of use.
Leaves of cabbage were dipped in test solution and air-dried. Treated leaves were placed in petri dishes lined with moist filter paper and inoculated with ten 3rd instar larvae. Mortality was recorded 72 hours after treatment. Feeding damages were also recorded using a scale of 0-100%.

[2] = test system: Spodoptera eridiana; assay: Southern armyworm foliar spray test on lima bean plants, mortality; assay type: in vivo; conditions: 96 h, 2nd instar larvae, lima bean foliage sprayed, assessed 4 days after treatment, read-out: mortality in comparison with untreated controls
Method: The active compounds were formulated in cyclohexanone as a 10,000 ppm solution supplied in tubes. The tubes were inserted into an automated electrostatic sprayer equipped with an atomizing nozzle and they served as stock solutions for which lower dilutions were made in 50% acetone:50% water (v/v). A nonionic surfactant (Kinetic) was included in the solution at a volume of 0.01% (v/v).
Lima bean plants (variety Sieva) were grown 2 plants to a pot and selected for treatment at the 1st true leaf stage. Test solutions were sprayed onto the foliage by an automated electrostatic plant sprayer equipped with an atomizing spray nozzle. The plants were dried in the sprayer fume hood and then removed from the sprayer. Each pot was placed into perforated plastic bags with a zip closure. About 10 to 11 armyworm larvae were placed into the bag and the bags zipped closed. Test plants were maintained in a growth room at about 25° C. and about 20-40% relative humidity for 4 days, avoiding direct exposure to fluorescent light (24 hour photoperiod) to prevent trapping of heat inside the bags. Mortality and reduced feeding were assessed 4 days after treatment, compared to untreated control plants.

SMILES: CNC(=O)CONC(=O)c1cc(Cl)cc(C)c1NC(=O)c1cnn(CC(F)(F)F)c1-c1ncccc1Cl [Compound 1-1, 5-(3-chloro-pyridin-2-yl)-1-(2,2,2-trifluoro-ethyl)-1H-pyrazole-4-carboxylic acid (4-chloro-2-methyl-6-methylcarbamoylmethoxycarbamoyl-phenyl)-amide]
- mortality at 500 ppm [1]: 100%
- mortality at 500 ppm [2]: 100%
